Experimental data taken from US10925858B2, “S-nitrosoglutathione (GSNO) and GSNO reductase inhibitors for use in therapy” (MUSC FOUNDATION FOR RESEARCH DEVELOPMENT, priority 2017, dated 2021).

Experiments:
cerebral microvessels = test: Transmission electron microscopy, ultrastructure of microvessels of diabetic mice; type: in vivo; details: cortex and hippocampus, GSNO supplemented diabetic animals, 8 weeks
Protocol: Male laca mice weighing between 28-32 g were procured from the Central Animal House, Panjab University, Chandigarh. The animals were acclimatized and were fed with standard pellet diet and water ad libitum. The experimental protocols were approved by the Institutional Ethics Committee and were conducted according to Indian National Science Academy (INSA) guidelines for the use and care of experimental animals. The animals were divided into four groups: (i) Control animals received phosphate buffered saline (PBS) throughout the study; (ii) Control+GSNO animals were administered with GSNO 100 μg/kg body weight orally, dissolved in PBS after every 24 h for 8 weeks; (iii) Diabetic animals were injected with STZ at a dose of 40 mg/kg body weight intraperitoneally for 5 days dissolved in 0.1 mol/L citrate buffer, pH 4.5 and Diabetic+GSNO mice were administered GSNO 100 μg/kg body weight orally dissolved in PBS after every 24 h for 8 weeks after the induction of diabetes. Animals were assessed weekly for development of diabetic encephalopathy in terms of memory deficits. All experimental procedures were done on mice at the end of study. Transmission electron microscopy was carried out by the method described by Gao et al., (2005). […]

[1] = system: protein-associated S-nitrosothiols; test: Assay for protein-associated S-nitrosylation (biotin-switch) in hBMVECs; type: cell-based, human; details: various concentrations, incubated 2 hr
Protocol: Cell culture: Primary human brain microvascular endothelial cells (hBMVECs) were purchased from Angio-Proteomie (Cat #: cAP-0002, Atlanta, Ga.). The cells were cultured in cell culture flasks or plates precoated with Quick Coating Solution (Angio-Proteomie; Cat #: cAP-01) and maintained in Endothelial Growth Medium (Angio-Proteomie; Cat #: cAP-02) at 37° C. under 5% CO2/95% air. When the cells were almost confluent, the medium was replaced with endothelial basal medium (Angio-Proteomie; Cat #: cAP-03) containing 0.5% fetal bovine serum (FBS; Life Technologies, Grand Island, N.Y.) about 8-12 hours before the experiment. No institutional approval was required for this study. The study was not pre-registered.
Assay for protein-associated S-nitrosylation: Protein S-Nitrosylation was analyzed by using biotin-switch method as described in our previous reports (Kim et al., 2014; Prasad et al., 2007). hBMVECs were lysed in 250 mM HEPES, pH 7.7, 1 mM EDTA, 0.1 mM neocuproine, 1% Nonidet P-40, 150 mM NaCl, 1 mM phenylmethanesulfonylfluoride, 20 mM methyl methanethiosulfonate (MMTS), 80 μM carmustine, protease inhibitor mixture (Sigma-Aldrich), and mixed with an equal volume of 25 mM HEPES, pH 7.7, 0.1 mM EDTA, 10 μM neocuproine, 5% SDS, 20 mM MMTS and incubated at 50° C. for 20 min. […] Following acetone precipitation, biotinylated (S-nitrosylated) proteins were analyzed by Western analysis. […]

N[C@@H](CCC(=O)N[C@@H](CSN=O)C(=O)NCC(=O)O)C(=O)O [GSNO, S-nitrosoglutathione]
ultrastructure of microvessels (cerebral microvessels): improved the ultrastructure of the damaged microvessels
RhoA S-nitrosylation [1]: increased
cellular levels of protein-associated S-nitrosothiols [1]: increased
